Measured values reported in patent US11827917B1, “Methods for the conversion of fermentable sugars to ethanol” (Colorado State University Research Foundation, priority 2020, dated 2023).
Marks after values point to notes of the source that are not given here.

Legend:
S. cerevisiae JAY 270 [1] = test: Serum-bottle cultivation in YPD: biomass, glycerol, ethanol yields; format: cell-based, Saccharomyces cerevisiae
Experimental: Procedure: Cultivations in serum bottles were used to determine the effect of the best-performing screened chemicals on the ethanol yield. S. cerevisiae JAY 270 was pre-cultured in 100 mL of YPD medium in 200-mL serum bottles overnight in a shaker at 30° C. and 200 rpm. The precultured yeast cells were collected and washed twice as described above. The cell pellet was resuspended in about 10 mL of 0.8% (w/v) NaCl and the cell concentration was estimated as OD600. TyrOH, PheOH, and TrpOH were added to 30 mL of YPD medium in 100-mL serum bottles at 0.05% and 0.2% respectively. The same amount of DMSO was added to YPD medium to serve as the control for TrpOH and TyrOH treatments. The bottles were inoculated with the prepared yeast cells to obtain an initial cell concentration of OD600=0.2. The serum bottles were sealed and cultured in a shaker at 30° C. and 200 rpm for 24 h. Each condition had three biological replicates.
(§1) Analytical methods: Cell growth was evaluated by monitoring OD600 and cell dry mass concentration. For dry mass measurements, 1.0 mL of culture was transferred to a pre-dried and pre-weighed 2-mL centrifuge tube. The tubes were centrifuged for 10 min at 14000 rpm using a microcentrifuge, and then the cell pellets were dried in an oven for 3 days at 65° C. The cell dry mass was determined by subtracting the initial tube mass from the dried mass of tube with cells. The concentrations of glucose, ethanol, and glycerol were measured via HPLC (Shimadzu LC20A series) outfitted with a refractive index detector and using an Aminex HPX-87H (300×7.8 mm) organic acid column and Cation H+ guard cartridge (Bio Rad Laboratories, Hercules, CA). The column was maintained at 65° C. and the mobile phase was 5 mM sulfuric acid with a flow rate of 0.6 mL/min. Standard compound solutions were used to calibrate the HPLC. Each sample was analyzed three times by HPLC.

S. mikatae JAY 1504 = test: Serum-bottle cultivation in YPD, different yeast strains; format: cell-based; conditions: 0.2%
Experimental: as §1
(§2) Procedure: Seven yeast strains (S. cerevisiae ATCC 26603, S. cerevisiae JAY 238, S. cerevisiae JAY 240, S. cerevisiae JAY 241, S. paradoxus JAY 1502, S. kudriavzezii JAY 1503, and S. mikatae JAY 1504) were pre-cultured in 30 mL of YPD medium in 100 mL serum bottle overnight in a shaker at 30° C. and 200 rpm. The precultured yeast cells of each strains were collected and washed twice. Finally, the cell pellet was resuspended in about 10 mL 0.8% (w/v) NaCl and the OD600 measured. TyrOH, PheOH, and TrpOH were added to 30 mL of YPD medium in 100-mL serum bottles at 0.2% (w/v) respectively. The same amount of DMSO was added in YPD medium and served as control to the TrpOH and TyrOH treatments. The prepared yeast cells were added to obtain the initial cell concentration at OD600=0.2. The serum bottles were sealed and cultured in a shaker at 30° C. and 200 rpm for 24 h. There were three biological replicates for each treatment.

S. kudriavzezii JAY 1503 = test: as above; format: cell-based; conditions: 0.2%
Experimental: as §1, §2

S. paradoxus JAY 1502 = test: as above; format: cell-based; conditions: 0.2%
Experimental: as §1, §2

S. cerevisiae JAY 270 [2] = test: Growth test in liquid YNB medium, low/high nitrogen, serum bottles; format: cell-based, Saccharomyces cerevisiae; conditions: 40, 200, 1000 mg/L; low and high nitrogen media
Experimental: A second set of tests was performed in a defined liquid medium, Yeast Nitrogen Base with Glucose (YNB), containing (NH4)2SO4 at either low (1 mM) or high (10 mM) nitrogen content. […] All serum bottles were incubated in a shaker at 30° C. and 150 RPM. Each treatment was performed in biological duplicate. Samples were collected at 0, 5, and 10 hours.

[3] = 0.05% (w/v), YPD, serum bottles
[4] = S. mikatae JAY 1504, YPD (Table 9B)
[5] = S. kudriavzezii JAY 1503, YPD (Table 9B)
[6] = S. paradoxus JAY 1502, YPD (Table 9B)

Compound: OCCc1ccccc1 [PheOH, 2-phenylethanol]
- Cell dry mass concentration, % of the control (S. cerevisiae JAY 270 [1]; 0.05%): 85%
- Biomass Yield (S. cerevisiae JAY 270 [1]; [3]): 0.088 + 0.001 g/g
- Biomass yield % change vs. control (S. cerevisiae JAY 270 [1]; [3]): −11* %
- EtOH yield (S. cerevisiae JAY 270 [1]; [3]): 0.40 ± 0.00 g/g
- EtOH yield % change vs. control (S. cerevisiae JAY 270 [1]; [3]): 3.7%
- Glycerol yield (S. cerevisiae JAY 270 [1]; [3]): 0.031 ± 0.001 g/g
- Glycerol yield % change vs. control (S. cerevisiae JAY 270 [1]; [3]): −4.6%
- Biomass yield vs. reference (S. cerevisiae JAY 270 [1]; 0.05%, YPD, serum bottles): −10.8%
- Ethanol yield (S. cerevisiae JAY 270 [1]; 0.05%, YPD, serum bottles): 0.40 ± 0.00 g/g
- Ethanol yield vs. reference (S. cerevisiae JAY 270 [1]; 0.05%, YPD, serum bottles): 3.7%
- Glycerol yield (S. cerevisiae JAY 270 [1]; 0.05%, YPD, serum bottles): 0.031 ± 0.001 g/g
- Glycerol yield vs. reference (S. cerevisiae JAY 270 [1]; 0.05%, YPD, serum bottles): −4.6%
- OD600 (S. cerevisiae JAY 270 [1]; 0.05%, YPD, serum bottles): 3.35
- Cell dry mass concentration, % of the control (S. cerevisiae JAY 270 [1]; 0.2%): 71%
- Effect on yeast cell growth (S. cerevisiae JAY 270 [1]; 0.2%): reduced yeast cell growth
- Biomass Yield (S. cerevisiae JAY 270 [1]; 0.2% (w/v), YPD, serum bottles): 0.064 + 0.002 g/g
- Biomass yield % change vs. control (S. cerevisiae JAY 270 [1]; 0.2% (w/v), YPD, serum bottles): −35* %
- EtOH yield (S. cerevisiae JAY 270 [1]; 0.2% (w/v), YPD, serum bottles): 0.41 ± 0.01 g/g
- EtOH yield % change vs. control (S. cerevisiae JAY 270 [1]; 0.2% (w/v), YPD, serum bottles): 6.2* %
- Glycerol yield (S. cerevisiae JAY 270 [1]; 0.2% (w/v), YPD, serum bottles): 0.025 ± 0.001 g/g
- Glycerol yield % change vs. control (S. cerevisiae JAY 270 [1]; 0.2% (w/v), YPD, serum bottles): −25* %
- Biomass yield vs. reference (S. cerevisiae JAY 270 [1]; 0.2%, YPD, serum bottles): −35.3%
- Effect on ethanol yield (S. cerevisiae JAY 270 [1]; 0.2%, YPD, serum bottles): increased the ethanol yield significantly
- Ethanol yield (S. cerevisiae JAY 270 [1]; 0.2%, YPD, serum bottles): 0.41 ± 0.01 g/g
- Ethanol yield vs. reference (S. cerevisiae JAY 270 [1]; 0.2%, YPD, serum bottles): 6.2%
- Glycerol yield (S. cerevisiae JAY 270 [1]; 0.2%, YPD, serum bottles): 0.025 ± 0.001 g/g
- Glycerol yield vs. reference (S. cerevisiae JAY 270 [1]; 0.2%, YPD, serum bottles): −25.1%
- OD600 (S. cerevisiae JAY 270 [1]; 0.2%, YPD, serum bottles): 2.44
- Biomass Yield (S. mikatae JAY 1504; S. mikatae JAY 1504): 0.053 ± 0.000 g/g
- Biomass yield % change vs. control (S. mikatae JAY 1504; S. mikatae JAY 1504): −14%
- EtOH yield (S. mikatae JAY 1504; S. mikatae JAY 1504): 0.386 ± 0.009 g/g
- EtOH yield % change vs. control (S. mikatae JAY 1504; S. mikatae JAY 1504): +3.6%
- Glycerol yield (S. mikatae JAY 1504; S. mikatae JAY 1504): 0.043 ± 0.007 g/g
- Glycerol yield % change vs. control (S. mikatae JAY 1504; S. mikatae JAY 1504): +4.1%
- DCW (S. mikatae JAY 1504; S. mikatae JAY 1504, YPD): 2.35 mg
- DCW Δ vs. ref (S. mikatae JAY 1504; S. mikatae JAY 1504, YPD): 77.1%
- OD600 (S. mikatae JAY 1504; S. mikatae JAY 1504, YPD): 1.85
- OD600 Δ vs. ref (S. mikatae JAY 1504; S. mikatae JAY 1504, YPD): 82.9%
- Biomass Yield (S. mikatae JAY 1504; [4]): 0.053 + 0.000 g/g
- Biomass yield Δ vs. ref (S. mikatae JAY 1504; [4]): −13.8%
- Ethanol yield (S. mikatae JAY 1504; [4]): 0.386 ± 0.009 g/g
- Ethanol yield Δ vs. ref (S. mikatae JAY 1504; [4]): 3.6%
- Glycerol yield (S. mikatae JAY 1504; [4]): 0.043 ± 0.007 g/g
- Glycerol yield Δ vs. ref (S. mikatae JAY 1504; [4]): 4.09%
- Biomass Yield (S. kudriavzezii JAY 1503; S. kudriavzezii JAY 1503): 0.036 ± 0.001 g/g
- Biomass yield % change vs. control (S. kudriavzezii JAY 1503; S. kudriavzezii JAY 1503): −19%
- EtOH yield (S. kudriavzezii JAY 1503; S. kudriavzezii JAY 1503): 0.399 ± 0.030 g/g
- EtOH yield % change vs. control (S. kudriavzezii JAY 1503; S. kudriavzezii JAY 1503): +8.7%
- Glycerol yield (S. kudriavzezii JAY 1503; S. kudriavzezii JAY 1503): 0.060 ± 0.005 g/g
- Glycerol yield % change vs. control (S. kudriavzezii JAY 1503; S. kudriavzezii JAY 1503): +19* %
- DCW (S. kudriavzezii JAY 1503; S. kudriavzezii JAY 1503, YPD): 1.90 mg
- DCW Δ vs. ref (S. kudriavzezii JAY 1503; S. kudriavzezii JAY 1503, YPD): 84.4%
- OD600 (S. kudriavzezii JAY 1503; S. kudriavzezii JAY 1503, YPD): 0.92
- OD600 Δ vs. ref (S. kudriavzezii JAY 1503; S. kudriavzezii JAY 1503, YPD): 74.9%
- Biomass Yield (S. kudriavzezii JAY 1503; [5]): 0.043 + 0.004 g/g
- Biomass yield Δ vs. ref (S. kudriavzezii JAY 1503; [5]): 18.6%
- Ethanol yield (S. kudriavzezii JAY 1503; [5]): 0.399 ± 0.030 g/g
- Ethanol yield Δ vs. ref (S. kudriavzezii JAY 1503; [5]): 8.7%
- Glycerol yield (S. kudriavzezii JAY 1503; [5]): 0.06 ± 0.005 g/g
- Glycerol yield Δ vs. ref (S. kudriavzezii JAY 1503; [5]): 18.78%
- Biomass Yield (S. paradoxus JAY 1502; S. paradoxus JAY 1502): 0.048 ± 0.001 g/g
- Biomass yield % change vs. control (S. paradoxus JAY 1502; S. paradoxus JAY 1502): −30* %
- EtOH yield (S. paradoxus JAY 1502; S. paradoxus JAY 1502): 0.393 ± 0.000 g/g
- EtOH yield % change vs. control (S. paradoxus JAY 1502; S. paradoxus JAY 1502): +2.7%
- Glycerol yield (S. paradoxus JAY 1502; S. paradoxus JAY 1502): 0.048 ± 0.002 g/g
- Glycerol yield % change vs. control (S. paradoxus JAY 1502; S. paradoxus JAY 1502): +22* %
- DCW (S. paradoxus JAY 1502; S. paradoxus JAY 1502, YPD): 1.95 mg
- DCW Δ vs. ref (S. paradoxus JAY 1502; S. paradoxus JAY 1502, YPD): 78.0%
- OD600 (S. paradoxus JAY 1502; S. paradoxus JAY 1502, YPD): 1.64
- OD600 Δ vs. ref (S. paradoxus JAY 1502; S. paradoxus JAY 1502, YPD): 70.0%
- Biomass Yield (S. paradoxus JAY 1502; [6]): 0.048 + 0.001 g/g
- Biomass yield Δ vs. ref (S. paradoxus JAY 1502; [6]): −29.8%
- Ethanol yield (S. paradoxus JAY 1502; [6]): 0.393 ± 0.000 g/g
- Ethanol yield Δ vs. ref (S. paradoxus JAY 1502; [6]): 2.7%
- Glycerol yield (S. paradoxus JAY 1502; [6]): 0.048 ± 0.002 g/g
- Glycerol yield Δ vs. ref (S. paradoxus JAY 1502; [6]): 21.98%
- Inhibitory effect on yeast cell growth in liquid YNB medium (S. cerevisiae JAY 270 [2]): inhibitory at 1000 mg/L in both media, but not at 40 and 200 mg/L
